These results are taken from US9750744.

Experiment in data set [1]: not given
The source holds these as a separate data set.

Each structure is given as a SMILES string. Where “and” joins values, the source holds several entries; their conditions need not be identical. Equal entries are not always repeated. Where two headings read alike, the source gives them in different places.

Take `O=C1NCCCCn2cc(F)cc(c2=O)[C@H]2CCCN2c2ccn3ncc1c3n2`: the ring closure, isolated yield (other bond, 15-membered ring) was 6%. Under “from O=C(NCCCCl)c1cnn2ccc(N3CCC[C@@H]3c3cc(F)cnc3O)nc12, ether bond, 14-membered ring, Cs2CO3, DMF, […], 85.0 °C, 16.0 h”, `O=C1NCCCOc2ncc(F)cc2[C@H]2CCCN2c2ccn3ncc1c3n2` displayed a ring closure, isolated yield of 44%. As to `O=C1NCCCOc2ccc(F)cc2[C@H]2CCCN2c2ccn3ncc1c3n2`, the ring closure, isolated yield (from CCOC(=O)c1cnn2ccc(N3CCC[C@@H]3c3cc(F)ccc3OCCCN)nc12, amide bond, 14-membered ring, DIEA, EtOH, 230.0 mM, 200.0 °C, 16.0 h) stood at 50%.

On to `O=C1Nc2ncccc2COc2ncc(F)cc2[C@H]2CCCN2c2ccn3ncc1c3n2`, for which the ring closure, isolated yield (from O=C(Nc1ncccc1CCl)c1cnn2ccc(N3CCC[C@@H]3c3cc(F)cnc3O)nc12, ether bond, 14-membered ring, Cs2CO3, DMF, 84.8 mM, 60.0 °C, 4.0 h, with chain assembly) was determined as 2.2%. The compound `O=C1NCCCn2cc(F)cc(c2=O)[C@H]2CCCN2c2ccn3ncc1c3n2` yielded a ring closure, yield of all isomers in data set [1] (from NCCCn1cc(F)cc([C@H]2CCCN2c2ccn3ncc(C(=O)O)c3n2)c1=O, amide bond, EDCI/HOBt, DCM, 26.4 mM, 25.0 °C, 6.0 h) of 39%.

`O=C1NCCCc2ncc(F)cc2[C@H]2CCCN2c2ccn3ncc1c3n2` had a ring closure, isolated yield (from NCCCc1ncc(F)cc1[C@H]1CCCN1c1ccn2ncc(C(=O)O)c2n1, amide bond, 13-membered ring, HATU/DIEA, DMF, 8.4 mM, 3.0 h) of 39%. For `Fc1ccc2c(c1)[C@H]1CCCN1c1ccn3ncc(c3n1)CNCCO2`, the ring closure, isolated yield (from NCCOc1ccc(F)cc1[C@H]1CCCN1c1ccn2ncc(C=O)c2n1, amine bond, 13-membered ring, Me4NBH(OAc)3, DCM, 8.4 mM, 25.0 °C, 16.0 h) is 21.6%. Take `O=C1NC[C@H](O)COc2ccc(F)cc2[C@H]2C[C@@H](O)CN2c2ccn3ncc1c3n2`: the ring closure, isolated yield (from O=C(NC[C@H](O)CCl)c1cnn2ccc(N3CC(O)C[C@@H]3c3cc(F)ccc3O)nc12, ether bond, 14-membered ring, Cs2CO3, DMF, 21.6 mM, 85.0 °C, 0.5 h) came to 16.2%. For the compound `O=C1OCCOc2ncc(F)cc2[C@H]2CCCN2c2ccn3ncc1c3n2`, the ring closure, yield of all isomers in data set [1] (from O=C(OCCCl)c1cnn2ccc(N3CCC[C@@H]3c3cc(F)c[nH]c3=O)nc12, ether bond, Cs2CO3, DMF, 22.2 mM, 90.0 °C, 16.0 h) was 22%. In turn, `COC(=O)c1cnn2ccc(N3CCC[C@@H]3c3cc(F)cnc3CCC(C)(C)NC(=O)OC(C)(C)C)nc12` came in with a ring closure, isolated yield (the molecule shown is the open-chain precursor, amide bond, 13-membered ring, EDCI/HOBt/TEA, DMF, 39.4 mM, 45.0 °C, 3 steps) of 48.3%.

For `O=C1NC[C@H](O)COc2ccc(F)cc2C2CC(F)(F)CN2c2ccn3ncc1c3n2` (stereo partly shown), the ring closure, isolated yield (from O=C(NC[C@H](O)CCl)c1cnn2ccc(N3CC(F)(F)CC3c3cc(F)ccc3O)nc12, ether bond, 14-membered ring, Cs2CO3, DMF, 20.0 mM, 85.0 °C, 0.5 h) is 20% and 24%.

Take `O=C1NC[C@H](O)Cn2cc(F)cc(c2=O)[C@H]2CCCN2c2ccn3ncc1c3n2`: the ring closure, yield of all isomers in data set [1] (from O=C(NC[C@H](O)CCl)c1cnn2ccc(N3CCC[C@@H]3c3cc(F)c[nH]c3=O)nc12, amine bond, Cs2CO3, DMF, […], 85.0 °C, 2.0 h) turned out to be 12%. `NCCCOc1ccc(F)cc1[C@H]1CCCN1c1ccn2ncc(CO)c2n1` yielded a ring closure, isolated yield (the molecule shown is the open-chain precursor, amine bond, 14-membered ring, PS-PPh3/CCl4, DCM, 26.0 mM, 25.0 °C) of 57.5%.
